Biological target: Guanine deaminase (Oryctolagus cuniculus)
Experiment: Compound was tested for its inhibitory effect on rabbit liver guanase

- Ki: 227 µM
Compound: O=c1cnc2c(ncn2Cc2ccccc2)c(=O)[nH]1 [3-Benzyl-3H-imidazo[4,5-e][1,4]diazepine-6,8-dione]
